# Laboratory results reported in PMC6751206, “Epigenetic re-wiring of breast cancer by pharmacological targeting of C-terminal binding protein” (Cell Death & Disease, 2019).
# Assays:
# [1] = target: T1, CtBP1/CtBP2 heterodimer (Homo sapiens, UniProt P56545+Q13363); assay: acceptor photobleaching FRET of CtBP1/CtBP2 dimerization in MDA-MB-231 cells; type: cell-based; settings: 10 μM compound; live-cell heterodimerization read-out
# T1 construct: CFP/YFP fusions of CtBP1 and CtBP2 (pSCFP3A, pSYFP2); heterodimer
# [2] = target: T1, CtBP1/CtBP2 heterodimer; assay: as above; type: cell-based; settings: live-cell heterodimerization read-out; dose-response
IC50 [2] [µM],Compound,FRET signal decrease at 10 μM [1]
–,CC(C)C(NC(=O)C(=O)O)C(=O)O (stereo not drawn) [CI19],"significant decrease in the paired CtBP1-YFP/CtBP2-CFP FRET signal, after incubation with CI19, CI22, CI23 or CI24"
–,O=C(O)C(=O)Nc1ccccc1 [CI22],"significant decrease in the paired CtBP1-YFP/CtBP2-CFP FRET signal, after incubation with CI19, CI22, CI23 or CI24"
10 to 20,Nc1nc(C(=O)C(=O)O)cs1 [CI24],–
